Source: ChEMBL document CHEMBL1147957, “Synthesis and antitubercular activity of phenothiazines with reduced binding to dopamine and serotonin receptors” (2007)
≈ marks a conversion by molar mass, not a printed value. Where “and” joins values, the source holds several entries; their conditions need not be identical. Equal entries are not always repeated.

What was measured:
[1] = molecular target: D(2) dopamine receptor (Homo sapiens) (UniProt P14416); assay: Displacement of [3H]YM091512 from dopamine D2 receptor at 10 uM
D(2) dopamine receptor (Homo sapiens), sequence (P14416 whole entry): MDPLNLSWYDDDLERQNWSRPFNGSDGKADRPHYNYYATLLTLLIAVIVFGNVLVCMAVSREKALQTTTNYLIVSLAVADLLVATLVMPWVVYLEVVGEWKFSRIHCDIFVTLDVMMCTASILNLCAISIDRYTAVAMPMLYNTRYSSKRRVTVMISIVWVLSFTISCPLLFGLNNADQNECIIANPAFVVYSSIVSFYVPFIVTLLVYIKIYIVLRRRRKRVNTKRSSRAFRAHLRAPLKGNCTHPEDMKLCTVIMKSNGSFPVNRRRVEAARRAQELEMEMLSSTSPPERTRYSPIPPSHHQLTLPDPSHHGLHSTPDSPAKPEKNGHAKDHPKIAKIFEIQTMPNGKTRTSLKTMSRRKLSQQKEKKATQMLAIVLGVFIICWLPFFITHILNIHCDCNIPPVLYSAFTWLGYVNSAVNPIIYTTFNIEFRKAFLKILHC

[2] = system: Mycobacterium tuberculosis; assay: Antitubercular activity against Mycobacterium tuberculosis H37Rv by MABA assay; format: functional
[3] = molecular target: T1, 5-hydroxytryptamine receptor 1A (Homo sapiens) (UniProt P08908); assay: Displacement of [3H]8-OH-DPAT from 5HT1A receptor at 10 uM
T1 sequence (whole entry): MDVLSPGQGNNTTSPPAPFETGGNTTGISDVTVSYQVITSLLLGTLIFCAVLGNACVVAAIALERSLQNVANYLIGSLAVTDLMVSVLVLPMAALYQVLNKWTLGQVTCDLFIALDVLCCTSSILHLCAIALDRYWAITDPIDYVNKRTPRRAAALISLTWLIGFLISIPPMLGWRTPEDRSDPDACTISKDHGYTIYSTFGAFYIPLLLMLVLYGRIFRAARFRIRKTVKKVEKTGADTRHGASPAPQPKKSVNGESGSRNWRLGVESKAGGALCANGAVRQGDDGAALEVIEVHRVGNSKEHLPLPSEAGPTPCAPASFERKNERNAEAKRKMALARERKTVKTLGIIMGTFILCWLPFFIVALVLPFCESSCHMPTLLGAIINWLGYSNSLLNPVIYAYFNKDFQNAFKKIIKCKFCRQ

[4] = molecular target: T2, 5-hydroxytryptamine receptor 2C (Homo sapiens) (UniProt P28335); assay: Displacement of [3H]mesulergine from 5HT2C receptor at 10 uM
T2 sequence (whole entry): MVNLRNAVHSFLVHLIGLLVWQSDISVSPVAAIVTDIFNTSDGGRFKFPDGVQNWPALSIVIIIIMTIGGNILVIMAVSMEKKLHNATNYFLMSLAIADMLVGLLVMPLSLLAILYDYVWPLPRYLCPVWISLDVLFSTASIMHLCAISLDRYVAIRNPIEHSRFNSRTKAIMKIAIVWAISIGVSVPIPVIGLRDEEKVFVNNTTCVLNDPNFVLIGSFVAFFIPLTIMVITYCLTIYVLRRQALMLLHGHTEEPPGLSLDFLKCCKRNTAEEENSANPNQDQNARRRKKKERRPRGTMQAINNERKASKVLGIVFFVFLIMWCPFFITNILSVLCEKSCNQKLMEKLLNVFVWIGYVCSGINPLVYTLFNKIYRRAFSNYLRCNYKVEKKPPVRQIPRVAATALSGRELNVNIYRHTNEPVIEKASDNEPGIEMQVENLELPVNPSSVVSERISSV

Row | SMILES | Activity [1] | MIC [2] | Activity [3] | Activity [4]
1 | CC(CO)NCCCN1c2ccccc2Sc2ccc(C(F)(F)F)cc21 (centres undefined) | 100% | 4.6 µg/mL (≈ 12 µM) | 58% | 91%
2 | Cc1ccc2c(c1)Sc1ccccc1N2CC1CCCN(C)C1 (centres undefined) | 93% | 7.2 µg/mL (≈ 22.2 µM) | 0% | 26%
3 | CN1CCCC(CN2c3ccccc3Sc3cc(F)ccc32)C1 (centres undefined) | 87% | 10.8 µg/mL (≈ 32.9 µM) | 7% | 89%
4 | CN1CCCC(CN2c3ccccc3Sc3cc(N4CCOCC4)ccc32)C1 (centres undefined) | 59% | > 2 µg/mL | 0% | 7%
5 | COc1ccc2c(c1)Sc1ccccc1N2CC1CCCN(C)C1 (centres undefined) | 75% | > 20 µg/mL | 0% | 41%
6 | OC1CCN(CCCN2c3ccccc3Sc3ccc(C(F)(F)F)cc32)C1 (centres undefined) | 74% | 11 µg/mL (≈ 27.9 µM) | 62% | 95%
7 | FC(F)(F)c1ccc2c(c1)N(Cc1ccc(CN3CCN(c4ncccn4)CC3)cc1)c1ccccc1S2 | 72% | > 20 µg/mL | 10% | 0%
8 | CN1CCCC(CN2c3ccccc3Sc3cccnc32)C1 (centres undefined) | 86% | > 10 µg/mL | 19% | 47%
9 | CN1CCCC(CN2c3ccccc3Sc3ccc(C(F)(F)F)cc32)C1 (centres undefined) | 87% | 7.2 µg/mL (≈ 19 µM) | 5% | 56%
10 | FC(F)(F)c1ccc2c(c1)N(CCCNc1ccccn1)c1ccccc1S2 | 85% | 20 µg/mL (≈ 49.8 µM) | 45% | 93%
11 | CC(CO)NCc1ccc(CN2c3ccccc3Sc3ccc(C(F)(F)F)cc32)cc1 (centres undefined) | 93% | 6.4 µg/mL (≈ 14.4 µM) | 24% | 59%
12 | CN(C)CCCN1c2ccccc2Sc2ccc(Cl)cc21.Cl [CHLORPROMAZINE HYDROCHLORIDE] | 96% | 6 µg/mL | 44% | 86%
13 | CN1CCCC(CN2c3ccccc3Sc3cnccc32)C1 (centres undefined) | – | > 20 µg/mL | – | –
14 | CN1CCN(Cc2ccc(CN3c4ccccc4Sc4ccc(C(F)(F)F)cc43)cc2)CC1 | 14% | 15 µg/mL (≈ 31.9 µM) | 0% | 0%
15 | CC1CN(Cc2ccc(CN3c4ccccc4Sc4ccc(C(F)(F)F)cc43)cc2)CC(C)O1 (centres undefined) | 75% | > 20 µg/mL | 0% | 7%
16 | CN(Cc1ccccc1)Cc1ccc(CN2c3ccccc3Sc3ccc(C(F)(F)F)cc32)cc1 | 66% | > 20 µg/mL | 4% | 0%
17 | CCN(CC)Cc1ccc(CN2c3ccccc3Sc3ccc(C(F)(F)F)cc32)cc1 | 97% | > 10 µg/mL | 23% | 57%
18 | CN1CCCC(CN2c3ccccc3Sc3cc(-c4ccccc4)ccc32)C1 (centres undefined) | 96% | 2.1 µg/mL (≈ 5.43 µM) | 0% | 58%
19 | CSc1ccc2c(c1)Sc1ccccc1N2CC1CCCN(C)C1 (centres undefined) | – | 11.6 µg/mL (≈ 32.5 µM) | 67% | –
20 | FC(F)(F)c1ccc2c(c1)N(Cc1ccc(CNc3cccc(Oc4ccccc4)c3)cc1)c1ccccc1S2 | 26% | > 20 µg/mL | 0% | 0%

Row | SMILES | Activity [1] | MIC [2] | Activity [3] | Activity [4]
21 | FC(F)(F)c1ccc2c(c1)N(CCCN1CCN(c3ncccn3)CC1)c1ccccc1S2 | 50% | 16 µg/mL (≈ 33.9 µM) | 94% | 85%
22 | CN1CCN(CCCN2c3ccccc3Sc3ccc(C(F)(F)F)cc32)CC1 [TRIFLUOPERAZINE] | – | 7.6 µg/mL (≈ 18.7 µM) | – | –
23 | CN1CCCC(CN2c3ccccc3Sc3cc(Cl)ccc32)C1 (centres undefined) | 94% | 14.3 µg/mL (≈ 41.5 µM) | 0% | 67%
24 | FC(F)(F)c1ccc2c(c1)N(Cc1ccc(CN3c4ccccc4Sc4ccc(C(F)(F)F)cc43)cc1)c1ccccc1S2 | 40% | 2 µg/mL (≈ 3.14 µM) | 0% | 0%
25 | FC(F)(F)c1ccc2c(c1)N(CCCN1c3ccccc3Sc3ccc(C(F)(F)F)cc31)c1ccccc1S2 | 48% | 2.3 µg/mL (≈ 4 µM) | 67% | 83%
26 | FC(F)(F)c1ccc2c(c1)N(CCCNc1nccs1)c1ccccc1S2 | 95% | 14 µg/mL (≈ 34.4 µM) | 54% | 81%
27 | FC(F)(F)c1ccc2c(c1)N(CCCNCc1ccccc1)c1ccccc1S2 | 97% | 4.2 µg/mL (≈ 10.1 µM) | 61% | 85%
28 | CN1CCCC(CN2c3ccccc3Sc3ccc(-c4ccccc4)cc32)C1 (centres undefined) | 97% | 4.5 µg/mL (≈ 11.6 µM) | 1% | 14%
29 | CN1CCN(CCCN2c3ccccc3Sc3ccc(C(F)(F)F)cc32)CC1 | 100% and 98% | – | 76% and 67% | 91% and 97%
30 | CN1CCCC(CN2c3ccccc3Sc3ccccc32)C1 (centres undefined) [MEPAZINE] | 88% | 17 µg/mL (≈ 54.8 µM) | 0% | 29%
31 | CN1CCN(CCCN2c3ccccc3Sc3ccc(C(F)(F)F)cc32)CC1.Cl | – | 6 µg/mL | – | –
32 | OC1CCN(Cc2ccc(CN3c4ccccc4Sc4ccc(C(F)(F)F)cc43)cc2)C1 (centres undefined) | 79% | 8.4 µg/mL (≈ 18.4 µM) | 0% | 65%
33 | FC(F)(F)c1ccc2c(c1)N(Cc1ccc(CNCc3ccccc3)cc1)c1ccccc1S2 | 13% | > 20 µg/mL | 0% | 0%
34 | CC1CN(CCCN2c3ccccc3Sc3ccc(C(F)(F)F)cc32)CC(C)O1 (centres undefined) | 99% | > 20 µg/mL | 98% | 30%
35 | FC(F)(F)c1ccc2c(c1)N(CCCNc1cccc(Oc3ccccc3)c1)c1ccccc1S2 | 0% | > 20 µg/mL | 0% | 5%
36 | FC(F)(F)c1ccc2c(c1)N(Cc1ccc(CNc3nccs3)cc1)c1ccccc1S2 | 11% | > 10 µg/mL | 0% | 0%
37 | CN(CCCN1c2ccccc2Sc2ccc(C(F)(F)F)cc21)Cc1ccccc1 | 99% | > 20 µg/mL | 31% | 68%
38 | FC(F)(F)c1ccc2c(c1)N(Cc1ccc(CNc3ccccn3)cc1)c1ccccc1S2 | 90% | > 10 µg/mL | 0% | 53%
39 | CCN(CC)CCCN1c2ccccc2Sc2ccc(C(F)(F)F)cc21 | 100% | 15 µg/mL (≈ 39.4 µM) | 63% | 94%
